Data on eight molecules can be found in ChEMBL document CHEMBL1201862, “PubChem BioAssay data set” (2004).

Some test systems named below: OVCAR-3; SK-MEL-2; NCI-H460; PC-3; KM12; NCI-H226; LOX IMVI; Malme-3M; A498; MDA-MB-435; 786-0; ACHN; CAKI-1; M14; HCT-15; K562; MOLT-4; OVCAR-4; HL-60; RPMI-8226.
What all share (experiment): inhibition of tumour cell growth, NCI panel, 48 h

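Each compound was tested at five concentrations against cells in 96-well plates for 48 hours. The concentration for 50% growth inhibition is given as GI50.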 Active and inactive are the calls of the source. Cut-off read from the data, not from the text of the source: active = GI50 up to about 1.1 µM and inactive = higher. Bounds are passed on as bounds.

Regarding `CC(=C\c1ccccc1)/C=C(\C#N)C(N)=O`, the GI50 with OVCAR-3, with SK-MEL-2, in the assay with NCI-H460, in the assay on PC-3, in the assay with KM12 and in the assay on NCI-H226 was > 10 µM (inactive) each time. Moreover, the GI50 in the assay with LOX IMVI, in the assay with Malme-3M, with A498, in the assay on MDA-MB-435, with 786-0 and in the assay with ACHN was > 10 µM (inactive) each time. Besides, the results for the GI50 in the assay with CAKI-1, in the assay with M14 and with HCT-15 were > 10 µM (inactive), > 10 µM (inactive) and greater than 10 µM, respectively.
In the case of `Cn1nc(/C=C\C(=O)N2CC(CCl)c3c2cc(N)c2ccccc32)cc1/C=C/C(=O)N1CC(CCl)c2c1cc(N)c1ccccc21` (configuration not stated), the GI50 in the assay with OVCAR-3, with SK-MEL-2, with NCI-H460, with PC-3, in the assay on KM12 and in the assay on NCI-H226 was < 0.01 µM (active) in each case. For the same molecule, the GI50 in the assay on LOX IMVI, in the assay on Malme-3M, in the assay with K562, with MOLT-4, in the assay with A498 and in the assay on MDA-MB-435 was < 0.01 µM (active) throughout. Also, the GI50 was < 0.01 µM (active) in the assay on 786-0; < 0.01 µM (active) in the assay on ACHN; < 0.01 µM (active) with CAKI-1; < 0.01 µM (active) with M14; < 0.01 µM (active) with OVCAR-4; 0.0119 µM in the assay on HCT-15.
Turning to `O=C1C(/C=C/c2ccc(Cl)cc2)=NNC2N1N=C1NC(=O)C3(NN12)c1ccccc1-c1ccccc13` (configuration not stated), the GI50 with OVCAR-3, with SK-MEL-2, in the assay with NCI-H460, with HL-60, in the assay with PC-3 and in the assay on NCI-H226 was > 100 µM (inactive) each time. The GI50 in the assay with LOX IMVI is > 100 µM (inactive); with Malme-3M it was > 100 µM (inactive); in the assay on K562, 35.4 µM (inactive); in the assay on A498, > 100 µM (inactive); with MDA-MB-435, 60.8 µM (inactive); with 786-0 it was > 100 µM (inactive). The GI50 is > 100 µM (inactive) with ACHN; > 100 µM (inactive) in the assay on CAKI-1; > 100 µM (inactive) in the assay with M14; > 100 µM (inactive) in the assay on OVCAR-4; 69.5 µM with HCT-15.
For `N#Cc1ncc(C(Cl)Cl)nc1Cl`, the GI50 is 2.12 µM (inactive) with OVCAR-3; 1.91 µM (inactive) in the assay with SK-MEL-2; 1.81 µM (inactive) with NCI-H460; 0.748 µM (active) in the assay with HL-60; 1.8 µM (inactive) in the assay on PC-3; 1.4 µM (inactive) in the assay on KM12. Moreover, the GI50 in the assay with NCI-H226 was 9.27 µM (inactive); with LOX IMVI, 1.44 µM (inactive); in the assay with Malme-3M it was 2.43 µM (inactive); in the assay on K562, 1.33 µM (inactive); in the assay on MOLT-4, 3.37 µM (inactive); in the assay on A498 it was > 10 µM (inactive). Besides, the GI50 in the assay with MDA-MB-435 was 1.76 µM (inactive); in the assay on 786-0, 1.76 µM (inactive); in the assay on ACHN, 2.04 µM (inactive); with CAKI-1, 1.4 µM (inactive); in the assay on M14 it was 1.13 µM (inactive); in the assay on OVCAR-4, 1.85 µM (inactive). In the assay with HCT-15, this molecule gave a GI50 of 1.82 µM.
For `CN(C)CCc1ccnc2nc(-c3ccc4ccccc4c3)cn12`, the GI50 with OVCAR-3 is 25.8 µM (inactive); in the assay with SK-MEL-2, > 100 µM (inactive); in the assay on RPMI-8226, > 100 µM (inactive); in the assay on NCI-H460, 14.7 µM (inactive); in the assay with HL-60, 36.9 µM (inactive); with PC-3, 33.7 µM (inactive). For the same molecule, the GI50 with KM12 is 18.1 µM (inactive); in the assay with NCI-H226, 27.8 µM (inactive); with LOX IMVI it was 25 µM (inactive); in the assay with Malme-3M, 96.4 µM (inactive); with K562 it was 79.8 µM (inactive); in the assay with MOLT-4 it was 35.2 µM (inactive). For the same molecule, the GI50 in the assay on MDA-MB-435 is 33.3 µM (inactive); in the assay on 786-0, 25 µM (inactive); in the assay with ACHN, 29.4 µM (inactive); with CAKI-1, 35.2 µM (inactive); in the assay on M14 it was 47.8 µM (inactive); in the assay with OVCAR-4, 27.5 µM (inactive). The GI50 in the assay with HCT-15 is 34.6 µM.
As to `c1ccc2c(-c3cnc(-c4c[nH]c5ccccc45)cn3)c[nH]c2c1`, the GI50 was 27.2 µM (inactive) in the assay on OVCAR-3; 70.3 µM (inactive) with SK-MEL-2; 45.3 µM (inactive) in the assay with RPMI-8226; 46.9 µM (inactive) in the assay with NCI-H460; 38 µM (inactive) with PC-3; 74.1 µM (inactive) in the assay on KM12. The GI50 with LOX IMVI was 29.3 µM (inactive); in the assay with Malme-3M, 38.9 µM (inactive); in the assay on K562, 18.8 µM (inactive); in the assay on A498, > 100 µM (inactive); with MDA-MB-435, 24.9 µM (inactive); in the assay with 786-0 it was 38.1 µM (inactive). In addition, the GI50 in the assay on ACHN is 65.5 µM (inactive); with CAKI-1 it was 74.8 µM (inactive); in the assay with M14, 29.1 µM (inactive); with OVCAR-4, > 100 µM (inactive); with HCT-15, 58.6 µM.
Take `COC(=O)[C@H](Cc1ccccc1)NC(=O)[C@H](Cc1ccccc1)NC(=O)[C@@H]1CCCN1C(=O)N[C@H]1C2C=CC(C2)C1C(=O)N1CCC[C@H]1C(=O)N[C@@H](C)C(=O)N[C@H](C(=O)OC)C(C)C` (some centres not stated): the GI50 was > 100 µM (inactive) in the assay with OVCAR-3; > 100 µM (inactive) in the assay on NCI-H460; 35.7 µM (inactive) in the assay with HL-60; > 100 µM (inactive) in the assay with PC-3; > 100 µM (inactive) in the assay with KM12; > 100 µM (inactive) with NCI-H226. The GI50 in the assay on LOX IMVI is 41.3 µM (inactive); in the assay with Malme-3M, > 100 µM (inactive); with K562, 33.9 µM (inactive); with MOLT-4 it was 29.4 µM (inactive); with A498 it was > 100 µM (inactive); in the assay on MDA-MB-435, > 100 µM (inactive). The GI50 in the assay on 786-0 is > 100 µM (inactive); with ACHN, > 100 µM (inactive); in the assay with CAKI-1 it was > 100 µM (inactive); in the assay with M14, > 100 µM (inactive); in the assay with OVCAR-4 it was > 100 µM (inactive); in the assay on HCT-15 it was greater than 100 µM.
As to `Cc1[nH]n(-c2nc3c(c(=O)[nH]2)CCCC3)c(=O)c1CCO`, the GI50 in the assay with OVCAR-3, in the assay on SK-MEL-2, with NCI-H460, with HL-60, in the assay on PC-3 and in the assay with KM12 was > 100 µM (inactive) each time. Moreover, the GI50 in the assay with NCI-H226, in the assay with LOX IMVI, in the assay on Malme-3M, in the assay with K562, in the assay on MOLT-4 and in the assay with A498 was > 100 µM (inactive) throughout. For the same molecule, the GI50 in the assay with MDA-MB-435 was > 100 µM (inactive); in the assay with 786-0, > 100 µM (inactive); with ACHN, > 100 µM (inactive); with CAKI-1, 60 µM (inactive); with M14, > 100 µM (inactive); in the assay with OVCAR-4 it was > 100 µM (inactive). In the assay with HCT-15, this molecule gave a GI50 greater than 100 µM.
